Paper PMC2950867 (Journal of pharmacological and toxicological methods, 2010)
Like-named read-outs stand apart in the source and are kept apart here.

Key:
[1] = ref Horton et al., cited from earlier work; for pKa of the α-amino group: 25 °C, free amino acid
Caco-2 cells [2] = format: cell-based, human; conditions: for IC50: read-out: IC50 MTT 24-hr, Caco-2 confluent monolayers, 24-hr single dosing
Caco-2 cells [3] = format: cell-based, human; conditions: read-out: IC50 TMER 24-hr; Caco-2 monolayers on PET inserts, 24-hr single dosing

N[C@@H](CS)C(=O)O [cysteine]
pKa of the α-amino group [1]: 10.7

[Cl][Cd][Cl] [cadmium chloride]
IC50 (Caco-2 cells [2]): 109 µM
IC50 (Caco-2 cells [3]): 49 µM

N[C@@H](Cc1ccc(O)cc1)C(=O)O [tyrosine]
hydropathy (tendency to prefer a hydrophobic environment) [1]: 0.019 kcal/mol

[Cl][Mn][Cl] [manganese chloride]
IC50 (Caco-2 cells [2]): 9600 µM
IC50 (Caco-2 cells [3]): 3080 µM

mercury chloride
IC50 (Caco-2 cells [3]): 90 µM

NCC(=O)O [glycine]
pKa of the α-amino group [1]: 9.8
hydropathy (tendency to prefer a hydrophobic environment) [1]: 0.16 kcal/mol

NC(=O)C[C@H](N)C(=O)O [asparagine]
pKa of the α-amino group [1]: 8.7

O=S(=O)([O-])[O-].[Cu+2] [cupric sulfate]
IC50 (Caco-2 cells [2]): 1570 µM
IC50 (Caco-2 cells [3]): 1800 µM

[Cl][Ni][Cl] [nickel chloride]
MTT (cell viability) (Caco-2 cells [2]; 24-hr single exposure at the 24-hr TMER IC50 concentration): 16% of control
IC50 (Caco-2 cells [2]): 968 µM
IC50 (Caco-2 cells [3]): 8400 µM
